Experiments:
[1] = test system: NCI-H292; assay: MTT cytotoxicity, 72 h; assay type: cell-based, human
Method: (§1) The cytotoxicity assessment was performed against three human cancer cell lines in suspension (K562, HL-60 and MOLT-4) and four adhered (HEp-2, NCI-H292, HT-29 and MCF-7).
(§2) The cells were obtained from the Cell Bank of Rio de Janeiro and maintained in the Laboratory of Cell Culture of the Department of Antibiotics of the Federal University of Pernambuco. The lines K562 (myeloblastic leukaemia), HL-60 (promyelocytic leukemia) and MOLT-4 (lymphoblastic leukemia) were cultured in RPMI 1640 medium and the lines HEp-2 (larynx carcinoma), NCI-H292 (lung carcinoma), HT-29 (colon adenocarcinoma) and MCF-7 (breast adenocarcinoma) were cultured in DMEM medium, supplemented with 10% fetal bovine serum, 2 mM glutamine, 100 U/mL penicillin and 100 μg/mL streptomycin (Gibco™ Life Technologies), at 37 °C and 5% CO2.
(§3) The evaluation of the cytotoxicity of the compounds was performed by the method of 3-(4,5-dimethyl-2-thiazolyl)-2,5-diphenyl-2H-tetrazolium bromide (MTT) (Sigma Aldrich Co., St. Louis, MO, USA). To perform the assay the cells were seeded in 96-well plates at the following concentrations: HL-60 and K562 (0.3 × 10^6 cells/mL); MOLT-4 and PBMC (10^6 cells/mL); NCI-H292, HT-29, HEp-2 e MCF-7 (10^5 cells/mL). Briefly, the compounds previously dissolved in DMSO (dimethylsulfoxide, Vetec, São Paulo, Brazil), were diluted in medium and added to each well at the desired concentrations. For the calculation of the concentration that inhibits 50% of cell growth (IC50) the compounds were serially diluted to obtain the final concentrations between 0.19–25 μg/mL. Doxorubicin was used as the standard in the concentration range between (0.078–10 μg/mL). After 72 h of contact of the cells with the compounds, it was added to each well 25 μL of MTT solution (5 mg/mL). Plates were left for another 3 h in incubator at 37 °C and at the end of that period the supernatant was aspirated. To perform the reading, 100 μL of DMSO was added in each well for the dissolution of the formazan crystals. The amount of formazan was measured by reading the plate at 560 nm absorbance. The IC50 was calculated from the nonlinear regression in the Prisma 7.0 software (GraphPad, San Diego, CA, USA). Each sample was tested in triplicate in three independent experiments.

[2] = test system: HT-29; assay: MTT cytotoxicity, 72 h; assay type: cell-based, human
Method: as §1, §2, §3

[3] = test system: HEp-2; assay: MTT cytotoxicity, 72 h; assay type: cell-based, human
Method: as §1, §2, §3

[4] = test system: MOLT-4; assay: MTT cytotoxicity, 72 h; assay type: cell-based, human
Method: as §1, §2, §3

[5] = test system: K562; assay: MTT cytotoxicity, 72 h; assay type: cell-based, human
Method: as §1, §2, §3

[6] = test system: HL-60; assay: MTT cytotoxicity, 72 h; assay type: cell-based, human; details: MTT, 72 h of incubation
Method: as §1, §2, §3

[7] = test system: MCF-7; assay: MTT cytotoxicity, 72 h; assay type: cell-based, human
Method: as §1, §2, §3

[8] = test system: Peripheral Blood Mononuclear Cells (PBMCs); assay: MTT cytotoxicity in normal cells, 72 h; assay type: cell-based, human; details: 72 h of incubation
Method: In order to evaluate the cytotoxic potential in normal cells, all the derivatives were tested against Peripheral Blood Mononuclear Cells (PBMCs) and the most promising compounds were again compounds 3c and 4a, which offered more selectivity against the cancer cells.
Mononuclear cells were obtained from the peripheral blood of healthy volunteers by heparin tube collection and isolated by Ficoll-Histopaque gradient centrifugation. After centrifugation, the cells were harvested, washed and resuspended in RPMI 1640 medium supplemented with 20% fetal bovine serum, 2 mM glutamine, 100 U/mL penicillin and 100 μg/mL streptomycin (Gibco™ Life Technologies, Waltham, MA, USA). The phytohemagglutinin mitogen 2% was also added into the culture medium. After that, using the neubauer chamber, the cells were counted and plated in a 96-well plate at a concentration of 10^6 cells/mL and then were maintained for overnight under incubation at 37 °C and 5% CO2 [65].
as §3

[9] = biological target: CDK2/CyclinA (Homo sapiens, UniProt P24941); assay: Kinase inhibition assay (ADP-Glo); assay type: biochemical; details: 10 µM ATP
Method: HsCDK2/CyclinA (human, cyclin-dependent kinase-2, kindly provided by Dr. A. Echalier-Glazer, Leicester, UK) was assayed in buffer A with 0.8 µg/µL of histone H1 as substrate.

[10] = biological target: T1, CDK5/p25 (Homo sapiens, UniProt Q00535); assay: Kinase inhibition assay (ADP-Glo); assay type: biochemical; details: 10 µM ATP
T1 construct: made in house; host or cells: bacteria
T1 sequence (Q00535 whole entry): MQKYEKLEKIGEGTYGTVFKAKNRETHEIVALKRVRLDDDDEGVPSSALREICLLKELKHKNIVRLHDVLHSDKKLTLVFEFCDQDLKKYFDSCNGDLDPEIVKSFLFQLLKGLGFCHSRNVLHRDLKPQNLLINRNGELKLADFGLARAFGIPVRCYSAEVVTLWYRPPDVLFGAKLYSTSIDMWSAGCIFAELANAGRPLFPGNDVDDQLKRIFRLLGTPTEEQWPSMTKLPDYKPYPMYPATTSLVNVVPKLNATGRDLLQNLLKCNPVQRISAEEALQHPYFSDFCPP
T1 sequence (Q15078 99-307 partner limits assumed): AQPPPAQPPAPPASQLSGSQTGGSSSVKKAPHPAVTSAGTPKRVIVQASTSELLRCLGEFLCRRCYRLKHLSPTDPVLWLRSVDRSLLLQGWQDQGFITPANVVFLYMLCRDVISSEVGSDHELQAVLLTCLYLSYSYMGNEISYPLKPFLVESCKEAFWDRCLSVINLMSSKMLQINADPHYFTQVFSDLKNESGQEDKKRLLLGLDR
Method: HsCDK5/p25 (human, recombinant, expressed in bacteria) was assayed in buffer A, with 0.8 µg/µL of histone H1 as substrate.

[11] = biological target: T2, CLK1 (Mus musculus, UniProt P22518); assay: Kinase inhibition assay (ADP-Glo); assay type: biochemical; details: 10 µM ATP
T2 construct: made in house; host or cells: bacteria
T2 sequence (P22518 whole entry): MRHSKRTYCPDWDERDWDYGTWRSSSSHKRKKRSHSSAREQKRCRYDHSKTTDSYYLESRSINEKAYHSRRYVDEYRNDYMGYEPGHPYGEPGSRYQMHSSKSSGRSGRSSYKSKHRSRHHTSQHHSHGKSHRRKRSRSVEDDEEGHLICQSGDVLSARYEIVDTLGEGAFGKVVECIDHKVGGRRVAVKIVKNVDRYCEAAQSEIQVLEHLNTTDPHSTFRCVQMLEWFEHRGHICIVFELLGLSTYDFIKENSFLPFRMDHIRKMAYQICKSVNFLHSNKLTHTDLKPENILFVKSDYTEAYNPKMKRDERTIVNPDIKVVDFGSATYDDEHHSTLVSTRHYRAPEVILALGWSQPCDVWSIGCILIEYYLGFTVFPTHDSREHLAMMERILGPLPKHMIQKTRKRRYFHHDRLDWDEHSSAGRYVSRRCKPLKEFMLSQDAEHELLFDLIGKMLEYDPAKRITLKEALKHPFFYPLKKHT
Method: MmCLK1 (from Mus musculus, recombinant, expressed in bacteria) was assayed in buffer A with 0.027μg/µL of the following peptide: GRSRSRSRSRSR as substrate.

[12] = biological target: T3, PIM1 (Homo sapiens, UniProt P11309); assay: Kinase inhibition assay (ADP-Glo); assay type: biochemical; details: 10 µM ATP
T3 construct: made in house; host or cells: bacteria
T3 sequence (P11309 whole entry): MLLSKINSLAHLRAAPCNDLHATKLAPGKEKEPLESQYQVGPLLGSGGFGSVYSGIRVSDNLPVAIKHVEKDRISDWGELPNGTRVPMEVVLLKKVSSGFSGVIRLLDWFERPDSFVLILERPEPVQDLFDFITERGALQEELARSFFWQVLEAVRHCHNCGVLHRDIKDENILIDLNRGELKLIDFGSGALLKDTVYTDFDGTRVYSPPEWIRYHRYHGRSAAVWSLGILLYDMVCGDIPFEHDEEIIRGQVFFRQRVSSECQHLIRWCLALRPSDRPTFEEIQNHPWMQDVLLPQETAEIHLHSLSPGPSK
Method: HsPIM1 (human proto-oncogene, recombinant, expressed in bacteria) was assayed in buffer B with 0.8 µg/µL of histone H1 (Sigma #H5505) as substrate.

[13] = biological target: T4, DYRK1A (Rattus norvegicus, UniProt Q63470); assay: Kinase inhibition assay (ADP-Glo); assay type: biochemical; details: 10 µM ATP
T4 construct: amino acids 1 to 499 including the kinase domain; made in house; host or cells: bacteria
Method: RnDYRK1A (Rattus norvegicus, amino acids 1 to 499 including the kinase domain, recombinant, expressed in bacteria, DNA vector kindly provided by Dr. W. Becker, Aachen, Germany) was assayed in buffer A with 0.033 μg/µL of the following peptide: KKISGRLSPIMTEQ as substrate.

[14] = biological target: CK1δ/ε; assay: Kinase inhibition assay (ADP-Glo); assay type: biochemical, Sus scrofa domesticus; details: 10 µM ATP
Method: SscCK1δ/ε (Sus scrofa domesticus, casein kinase 1δ/ε, affinity purified from porcine brain) was assayed in buffer A, with 0.022 μg/μL of the following peptide: RRKHAAIGSpAYSITA (“Sp” stands for phosphorylated serine) as CK1-specific substrate.

[15] = biological target: T5, HASPIN (Homo sapiens, UniProt Q8TF76); assay: Kinase inhibition assay (ADP-Glo); assay type: biochemical; details: 10 µM ATP
T5 construct: kinase domain, amino acids 470 to 798; made in house; host or cells: bacteria
T5 sequence (Q8TF76 470-798): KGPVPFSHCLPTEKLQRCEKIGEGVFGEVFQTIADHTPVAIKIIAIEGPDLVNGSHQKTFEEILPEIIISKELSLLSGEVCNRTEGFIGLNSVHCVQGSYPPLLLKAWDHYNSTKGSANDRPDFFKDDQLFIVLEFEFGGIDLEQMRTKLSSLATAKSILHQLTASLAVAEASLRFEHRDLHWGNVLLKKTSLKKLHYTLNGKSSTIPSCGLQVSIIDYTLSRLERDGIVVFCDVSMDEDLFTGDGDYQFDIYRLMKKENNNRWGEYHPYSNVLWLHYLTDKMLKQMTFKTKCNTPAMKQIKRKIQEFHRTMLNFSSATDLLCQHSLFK
Method: HsHASPIN (human, kinase domain, amino acids 470 to 798, recombinant, expressed in bacteria) was assayed in buffer A with 0.007 µg/µL of Histone H3 (1-21) peptide ([…]) as substrate;

[16] = biological target: T6, AURKB (Homo sapiens, UniProt Q96GD4); assay: Kinase inhibition assay (ADP-Glo); assay type: biochemical; details: 10 µM ATP
T6 construct: purchased SignalChem A31-10G; host or cells: Sf9 insect cells (baculovirus)
T6 sequence (Q96GD4 whole entry): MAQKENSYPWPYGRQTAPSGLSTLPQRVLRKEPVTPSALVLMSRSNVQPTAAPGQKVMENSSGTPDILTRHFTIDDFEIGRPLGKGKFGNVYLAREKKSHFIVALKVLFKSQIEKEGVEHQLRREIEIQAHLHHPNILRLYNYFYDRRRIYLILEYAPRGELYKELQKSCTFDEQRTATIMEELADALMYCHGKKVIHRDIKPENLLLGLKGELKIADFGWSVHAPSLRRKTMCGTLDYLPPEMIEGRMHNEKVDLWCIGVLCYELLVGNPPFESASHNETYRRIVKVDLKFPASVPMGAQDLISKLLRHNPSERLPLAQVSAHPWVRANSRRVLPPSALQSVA

[17] = biological target: CDK9/CyclinT (Homo sapiens, UniProt P50750); assay: Kinase inhibition assay (ADP-Glo)
Sequence of CDK9/CyclinT (P50750 whole entry): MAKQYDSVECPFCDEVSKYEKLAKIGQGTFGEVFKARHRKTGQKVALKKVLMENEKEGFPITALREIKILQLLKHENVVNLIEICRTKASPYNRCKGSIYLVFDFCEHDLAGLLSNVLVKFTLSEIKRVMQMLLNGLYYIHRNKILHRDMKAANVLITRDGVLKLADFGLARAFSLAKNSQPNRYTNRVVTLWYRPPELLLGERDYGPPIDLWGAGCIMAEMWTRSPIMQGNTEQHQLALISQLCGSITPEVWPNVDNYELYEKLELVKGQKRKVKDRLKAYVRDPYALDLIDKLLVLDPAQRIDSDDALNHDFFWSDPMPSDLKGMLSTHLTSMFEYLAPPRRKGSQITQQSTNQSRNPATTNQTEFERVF
Sequence of CDK9/CyclinT (O60563 whole entry partner): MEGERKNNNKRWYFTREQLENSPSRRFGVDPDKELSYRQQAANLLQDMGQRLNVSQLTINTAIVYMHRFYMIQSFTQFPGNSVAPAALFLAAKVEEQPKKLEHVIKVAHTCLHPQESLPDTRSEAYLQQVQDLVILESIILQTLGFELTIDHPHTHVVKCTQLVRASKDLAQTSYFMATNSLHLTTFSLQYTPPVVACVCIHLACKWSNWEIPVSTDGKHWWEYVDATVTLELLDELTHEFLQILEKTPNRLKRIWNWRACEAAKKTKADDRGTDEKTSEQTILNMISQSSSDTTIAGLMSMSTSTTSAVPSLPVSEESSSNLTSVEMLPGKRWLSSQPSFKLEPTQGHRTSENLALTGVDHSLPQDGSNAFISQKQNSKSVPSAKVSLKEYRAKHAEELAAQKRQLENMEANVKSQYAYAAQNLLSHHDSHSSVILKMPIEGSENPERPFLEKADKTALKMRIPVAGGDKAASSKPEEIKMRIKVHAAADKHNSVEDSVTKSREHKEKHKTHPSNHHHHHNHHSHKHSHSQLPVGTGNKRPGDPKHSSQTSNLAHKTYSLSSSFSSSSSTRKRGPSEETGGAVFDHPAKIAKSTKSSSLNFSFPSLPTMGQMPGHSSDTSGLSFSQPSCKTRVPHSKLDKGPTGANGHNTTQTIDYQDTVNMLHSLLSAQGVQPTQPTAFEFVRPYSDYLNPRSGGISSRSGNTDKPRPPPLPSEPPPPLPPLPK
Method: The protein kinases studied were: CDK2/CyclinA, CDK5/p25, CDK9/CyclinT (cyclin-dependent kinases), HASPIN (haploid germ cell-specific nuclear protein kinase), PIM1 (PIM family kinase 1), CLK1 (cdc2-like kinase 1), DYRK1A (dual-specificity tyrosine phosphorylation regulated kinase), CK1δ/ε (casein kinase 1 isoforms), GSK3α/β (glycogen synthase kinase 3) and AURKB (aurora kinase B). Initially, all compounds were first tested at 10 μM. […] Compounds displaying more than 50% inhibition at 10 μM were next tested over a wide range of concentrations (usually 0.01–10 μM), and IC50 values were determined from the dose-response curves (Sigma-Plot).
Kinase activities were assayed in appropriate kinase buffer, with either protein or peptide as substrate in the presence of 10 µM ATP in a final volume of 6 µL using the ADP-Glo^TM assay kit (Promega, Madison, WI, USA, as described in Zegzouti et al. [66]). Controls were performed with appropriate dilutions of dimethylsulfoxide (solvent of the tested compounds).
The buffers used for kinase assays are the following: (A) 10 mM MgCl2, 1 mM EGTA, 1 mM DTT, 25 mM Tris-HCl pH 7.5, 50 µg/mL heparin; (B) 25 mM MOPS, pH 7.2, 12.5 mM -glycerolphosphate, 25 mM MgCl2, 5 mM EGTA, 2 mM EDTA, 0.25 mM DTT.

[18] = biological target: GSK3 α/β; assay: Kinase inhibition assay (ADP-Glo); assay type: biochemical, Sus scrofa domesticus; details: 10 µM ATP
Method: SscGSK-3α/β (Sus scrofa domesticus, glycogen synthase kinase-3, affinity purified from porcine brain) was assayed in buffer A with 0.010 µg/µL of GS-1 peptide, a GSK-3-selective substrate ([…]pEDEEE, “Sp” stands for phosphorylated serine).

[19] = Homo sapiens, NCI-H292, 72 h of incubation
[20] = Homo sapiens, HT-29, 72 h of incubation
[21] = Homo sapiens, HEp-2, 72 h of incubation
[22] = Homo sapiens, MOLT-4, 72 h of incubation
[23] = Homo sapiens, K562, 72 h of incubation
[24] = Homo sapiens, MCF7, 72 h of incubation

Row | Compound | IC50 [1, 19] | IC50 [2, 20] | IC50 [3, 21] | IC50 [4, 22] | IC50 [5, 23] | IC50 ([6]; Homo sapiens, HL-60) | IC50 [7, 24] | IC50 ([8]; Homo sapiens, PBMC) | melting point | IC50 [9] | IC50 [10] | IC50 [11] | IC50 [12] | IC50 [13] | IC50 [14] | IC50 [15] | IC50 [16] | IC50 [17] | IC50 [18] | further results
1 | 2,6-Pyridinedicarboxaldehyde Semicarbazone [Compound 3j] |  |  |  |  |  |  |  |  |  |  |  |  |  |  |  |  |  |  |  | IC50 ([1]; 72 h of incubation): > 100 µM; IC50 ([2]; 72 h of incubation): > 100 µM; IC50 ([3]; 72 h of incubation): > 100 µM; IC50 ([4]; 72 h of incubation): > 100 µM; IC50 ([5]; 72 h of incubation): > 100 µM; IC50 [6]: > 100 µM; IC50 ([7]; 72 h of incubation): > 100 µM; IC50 [8]: > 100 µM
2 | COc1ccc(C=NNC(N)=O)cc1 [Compound 3a, 4-Methoxybenzaldehyde Semicarbazone] | > 100 µM | > 100 µM | > 100 µM | > 100 µM | > 100 µM | > 100 µM | > 100 µM | > 100 µM | 210 to 212 °C |  |  |  |  |  |  |  |  |  |  | 
3 | COc1cc(C=NNC(N)=O)ccc1O [Compound 3b, 4-Hydroxy-3-methoxybenzaldehyde Semicarbazone] | > 100 µM | > 100 µM | > 100 µM | > 100 µM | > 100 µM | > 100 µM | > 100 µM | > 100 µM | 237 to 239 °C |  |  |  |  |  |  |  |  |  |  | 
4 | NC(=O)NN=Cc1ccc(Br)cc1 [Compound 3d, 4-Bromobenzaldehyde Semicarbazone] | > 100 µM | > 100 µM | 23.1 ± 0.8 µM | 37.2 ± 0.84 µM | 25.2 ± 2.43 µM | 16.9 ± 1.1 µM | 33.5 ± 0.75 µM | 46.3 ± 0.97 µM | 237 to 239 °C | > 10 µM | > 10 µM | > 10 µM | > 10 µM | > 10 µM | > 10 µM | > 10 µM | > 10 µM | > 10 µM | > 10 µM | 
5 | NC(=O)NN=Cc1ccc(Cl)cc1 [Compound 3e, 4-Chlorobenzaldehyde Semicarbazone] | > 100 µM | > 100 µM | 22.3 ± 0.4 µM | > 100 µM | 58.7 ± 0.97 µM | > 100 µM | 33.9 ± 0.8 µM | > 100 µM | 235 to 236 °C | > 10 µM | > 10 µM | > 10 µM | > 10 µM | > 10 µM | > 10 µM | > 10 µM | > 10 µM | > 10 µM | > 10 µM | 
6 | NC(=O)NN=Cc1ccc(Cl)c(Cl)c1 [Compound 3f, 3,4-Dichlorobenzaldehyde Semicarbazone] | > 100 µM | > 100 µM | 8.61 ± 0.35 µM | > 100 µM | 26.3 ± 1.86 µM | 14.2 ± 1.41 µM | 23.3 ± 1.55 µM | > 100 µM | 246 to 247 °C | > 10 µM | > 10 µM | > 10 µM | > 10 µM | > 10 µM | > 10 µM | > 10 µM | > 10 µM | > 10 µM | > 10 µM | 
7 | CC(C)(C)c1ccc(C=NNC(N)=O)cc1 [Compound 3h, 4-Tert-Butylbenzaldehyde Semicarbazone] | 48.8 ± 0.97 µM | 47 ± 0.75 µM | 42.9 ± 0.75 µM | 25.5 ± 1.9 µM | > 100 µM | > 100 µM | 58.4 ± 1.86 µM | 49.7 ± 1.06 µM | 216 to 218 °C | > 10 µM | > 10 µM | 1.9 µM | > 10 µM | > 10 µM | > 10 µM | > 10 µM | > 10 µM | > 10 µM | > 10 µM | 
8 | NC(=O)NN=Cc1ccncc1 [Compound 3i, 4-Pyridinecarboxaldehyde Semicarbazone] | > 100 µM | > 100 µM | > 100 µM | > 100 µM | > 100 µM | > 100 µM | > 100 µM | > 100 µM | 225 to 226 °C |  |  |  |  |  |  |  |  |  |  | 
9 | NC(=O)NN=Cc1cccs1 [Compound 3k, 2-Thiophenecarboxaldehyde Semicarbazone] | > 100 µM | > 100 µM | > 100 µM | > 100 µM | > 100 µM | > 100 µM | > 100 µM | > 100 µM | 227 to 230 °C |  |  |  |  |  |  |  |  |  |  | 
10 | NC(=O)N/N=C/c1ccc([N+](=O)[O-])o1 [Compound 3m, 5-Nitro-2-furfuraldehyde Semicarbazone] | 31.9 ± 0.07 µM | 28.4 ± 8.56 µM |  |  |  | 24.33 ± 0.16 µM | 8.56 ± 0.01 µM | > 100 µM |  |  | > 10 µM |  | > 10 µM |  |  | > 10 µM |  | > 10 µM | > 10 µM | 

— publication PMC6958387, “Biological Evaluation of Arylsemicarbazone Derivatives as Potential Anticancer Agents” (Pharmaceuticals, 2019)
